Reference: patent US9062041B2 (Bayer Intellectual Property GmbH, priority 2011, dated 2015)

How the values were obtained:
Assay type in all cases: cell-based
[1] = biological target: EP2 subtype of the human PGE2 receptor (Homo sapiens, UniProt P43116); experiment: cAMP antagonism test on the human EP2 receptor (HTRF cAMP detection); conditions: hEP2 receptor, read-out: Antagonism hEP2 IC50
Outline: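 Cells expressing human EP2 preincubated 20 min at RT with compound (0.8 nM–16.5 μM), then stimulated 60 min with PGE2 (3× solution 1.5 nM) in PBS-IBMX. After 20 min lysis, cAMP measured by competitive HTRF with cAMP-d2 and Eu cryptate anti-cAMP antibody (665/620 nm ratio).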

[2] = biological target: EP4 subtype of the human PGE2 receptor (Homo sapiens, UniProt P35408); experiment: cAMP antagonism test on the human EP4 receptor (HTRF cAMP detection); conditions: selectivity towards hEP4, IC50 measured by cAMP antagonism test
Chain of EP4 subtype of the human PGE2 receptor (P35408 whole entry): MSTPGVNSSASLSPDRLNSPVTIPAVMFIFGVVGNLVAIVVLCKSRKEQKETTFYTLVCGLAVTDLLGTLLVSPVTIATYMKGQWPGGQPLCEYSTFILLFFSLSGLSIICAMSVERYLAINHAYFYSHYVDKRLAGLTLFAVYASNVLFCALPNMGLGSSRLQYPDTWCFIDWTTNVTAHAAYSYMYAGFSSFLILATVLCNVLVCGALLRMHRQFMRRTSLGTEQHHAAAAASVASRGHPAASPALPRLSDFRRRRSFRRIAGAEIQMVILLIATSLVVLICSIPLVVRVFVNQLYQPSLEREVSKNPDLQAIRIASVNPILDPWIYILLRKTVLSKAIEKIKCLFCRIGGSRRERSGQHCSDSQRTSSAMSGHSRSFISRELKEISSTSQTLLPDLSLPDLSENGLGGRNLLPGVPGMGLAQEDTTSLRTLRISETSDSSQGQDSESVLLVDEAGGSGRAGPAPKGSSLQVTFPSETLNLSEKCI
Outline: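 Cells expressing human EP4 preincubated 20 min at RT with compound (0.8 nM–16.5 μM), then stimulated with PGE2 (0.3 nM in 3× solution, with IBMX) 60 min at RT. After lysis, cAMP measured by HTRF competition (665/620 nm ratio); antagonism seen as rise in FRET signal.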

human PGD receptor = biological target: T1, human PGD receptor (Homo sapiens, UniProt Q13258); experiment: cAMP antagonism test on the human prostaglandin D receptor (HTRF cAMP detection); conditions: selectivity towards hDP, IC50 measured by cAMP antagonism test
T1 sequence (Q13258 1-359): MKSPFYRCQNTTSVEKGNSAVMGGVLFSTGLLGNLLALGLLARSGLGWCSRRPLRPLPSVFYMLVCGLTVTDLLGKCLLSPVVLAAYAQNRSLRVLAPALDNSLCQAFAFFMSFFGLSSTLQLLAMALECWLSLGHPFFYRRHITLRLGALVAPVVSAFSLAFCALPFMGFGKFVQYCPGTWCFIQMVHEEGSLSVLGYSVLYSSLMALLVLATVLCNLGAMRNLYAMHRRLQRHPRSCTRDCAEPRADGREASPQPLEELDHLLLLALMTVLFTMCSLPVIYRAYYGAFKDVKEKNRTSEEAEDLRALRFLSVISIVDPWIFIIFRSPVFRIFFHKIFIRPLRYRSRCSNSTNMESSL
Outline: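 Cells pre-mixed with cAMP-d2 were preincubated with compound (0.8 nM–16.5 μM) for 20 min at RT, then stimulated with 3× PGD2 solution (6 nM, in PBS-IBMX) for 30 min at RT. After lysis (20 min), HTRF read at 665/620 nm; antagonism seen as rise in FRET ratio.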

Chain of EP2 subtype of the human PGE2 receptor (P43116 whole entry): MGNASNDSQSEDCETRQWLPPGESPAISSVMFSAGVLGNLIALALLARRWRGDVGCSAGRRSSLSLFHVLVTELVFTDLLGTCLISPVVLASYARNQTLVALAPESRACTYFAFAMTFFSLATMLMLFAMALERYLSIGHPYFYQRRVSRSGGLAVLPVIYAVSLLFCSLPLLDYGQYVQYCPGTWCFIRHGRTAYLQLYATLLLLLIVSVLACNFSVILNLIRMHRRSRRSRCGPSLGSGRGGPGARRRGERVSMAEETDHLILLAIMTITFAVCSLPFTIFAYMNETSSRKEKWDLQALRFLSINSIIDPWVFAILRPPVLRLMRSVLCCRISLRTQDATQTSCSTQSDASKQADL

Row | SMILES | IC50 [1] [nM] | Selectivity hEP2/hEP4 [2] | Selectivity hEP2/hDP (human PGD receptor)
1 | COCCNC(=O)c1ccc2nn(CC3CCN(C(=O)c4ccc(OC)cc4F)CC3)cc2c1C [Example 7, 2-{[1-(2-fluoro-4-methoxybenzoyl)piperidin-4-yl]methyl}-N-(2-methoxyethyl)-4-methyl-2H-indazol-5-carboxamide] | 25.8 | xxx (xxx > 100) | xxx (xxx > 100)
2 | Cc1ncc(-c2ccc(C(=O)N3CCC(Cn4cc5c(C)c(C(=O)NCC(F)(F)F)ccc5n4)CC3)cc2)cn1 [Example 327, 4-methyl-2-({1-[4-(2-methylpyrimidin-5-yl)benzoyl]piperidin-4-yl}methyl)-N-(2,2,2-trifluoroethyl)-2H-indazol-5-carboxamide] | 1210 | xx (xx: 10-100) | xx (xx: 10-100)
3 | COCCNC(=O)c1ccc2nn(CC3CCN(C(=O)c4ccc(SC(F)(F)F)cc4)CC3)cc2c1C [Example 57, N-(2-methoxyethyl)-4-methyl-2-[(1-{4-[(trifluoromethyl)sulphanyl]benzoyl}piperidin-4-yl)methyl]-2H-indazol-5-carboxamide] | 5.29 | xxx (xxx > 100) | xxx (xxx > 100)
4 | COCCNC(=O)c1ccc2nn(CC3CN(C(=O)c4ccc(C(F)(F)F)c(F)c4)C3)cc2c1C [Example 122, 2-({1-[3-fluoro-4-(trifluoromethyl)benzoyl]azetidin-3-yl}methyl)-N-(2-methoxy-ethyl)-4-methyl-2H-indazol-5-carboxamide] | 28.6 | xxx (xxx > 100) | xxx (xxx > 100)
5 | Cc1c(C(=O)NCC(F)(F)F)ccc2nn(CC3CCN(C(=O)c4ccc(Oc5ccc(C#N)cc5)cc4)CC3)cc12 [Example 306, 2-({1-[4-(4-cyanophenoxy)benzoyl]piperidin-4-yl}methyl)-4-methyl-N-(2,2,2-trifluoroethyl)-2H-indazol-5-carboxamide] | 76.6 | xxx (xxx > 100) | xxx (xxx > 100)
6 | Cc1c(C(=O)NCC(C)OC2CCC2)ccc2nn(CC3CN(C(=O)c4ccc(Cl)cc4)C3)cc12 (racemic) [Example 154, (+/−)-2-{[1-(4-chlorobenzoyl)azetidin-3-yl]methyl}-N-[2-(cyclobutyloxy)propyl]-4-methyl-2H-indazol-5-carboxamide] | 80.8 | xxx (xxx > 100) | xxx (xxx > 100)
7 | COc1ccc2c(c1)cc(C(=O)N1CC(Cn3cc4c(C)c(C(=O)NCC(F)(F)F)ccc4n3)C1)n2C [Example 168, 2-({1-[(5-methoxy-1-methyl-1H-indol-2-yl)carbonyl]azetidin-3-yl}methyl)-4-methyl-N-(2,2,2-trifluoroethyl)-2H-indazol-5-carboxamide] | 29.3 | xxx (xxx > 100) | xxx (xxx > 100)
8 | Cc1c(C(=O)NCC2CCCCO2)ccc2nn(CC3CN(C(=O)c4ccc(Cl)cc4)C3)cc12 (single isomer, unassigned) [Example 146, (S or R)-2-{[1-(4-chlorobenzoyl)azetidin-3-yl]methyl}-4-methyl-N-(3,4,5,6-tetrahydro-2H-pyran-2-ylmethyl)-2H-indazol-5-carboxamide] | 52.6 | xxx (xxx > 100) | xxx (xxx > 100)
9 | Cc1c(C(=O)NCC(F)(F)F)ccc2nn(CC3CCN(C(=O)c4ccc(Oc5ccc(C#N)cn5)cc4)CC3)cc12 [Example 310, 2-[(1-{4-[(5-cyanopyridin-2-yl)oxy]benzoyl}piperidin-4-yl)methyl]-4-methyl-N-(2,2,2-trifluoroethyl)-2H-indazol-5-carboxamide] | 806 | xx (xx: 10-100) | xx (xx: 10-100)
10 | COCCNC(=O)c1ccc2nn(CC3CCN(C(=O)c4ccc(Oc5ccc(Cl)cn5)cc4)CC3)cc2c1C [Example 357, 2-[(1-{4-[(5-chloropyridin-2-yl)oxy]benzoyl}piperidin-4-yl)methyl]-N-(2-methoxyethyl)-4-methyl-2H-indazol-5-carboxamide] | 7.36 | xxx (xxx > 100) | xxx (xxx > 100)
11 | Cc1c(C(=O)NCC2CCCCO2)ccc2nn(CC3CN(C(=O)c4ccc(Cl)cc4)C3)cc12 (racemic) [Example 144, (+/−)-2-{[1-(4-chlorobenzoyl)azetidin-3-yl]methyl}-4-methyl-N-(3,4,5,6-tetrahydro-2H-pyran-2-ylmethyl)-2H-indazol-5-carboxamide] | 50.8 | xxx (xxx > 100) | xxx (xxx > 100)
12 | COCCNC(=O)c1ccc2nn(CC3CCN(C(=O)c4nc5ccccc5s4)CC3)cc2c1C [Example 348, 2-{[1-(benzothiazol-2-ylcarbonyl)piperidin-4-yl]methyl}-N-(2-methoxyethyl)-4-methyl-2H-indazol-5-carboxamide] | 8.88 | xxx (xxx > 100) | xxx (xxx > 100)
13 | Cc1c(C(=O)NCC(F)(F)F)ccc2nn(CC3CN(C(=O)c4ccc(C(F)(F)F)cc4F)C3)cc12 [Example 131, 2-({1-[2-fluoro-4-(trifluoromethyl)benzoyl]azetidin-3-yl}methyl)-4-methyl-N-(2,2,2-trifluoroethyl)-2H-indazol-5-carboxamide] | 228 | xx (xx: 10-100) | xx (xx: 10-100)
14 | Cc1c(C(=O)NCC(F)(F)F)ccc2nn(CC3CCN(C(=O)c4cnc(-c5ccccc5)s4)CC3)cc12 [Example 298, 4-methyl-2-({1-[(2-phenylthiazol-5-yl)carbonyl]piperidin-4-yl}methyl)-N-(2,2,2-trifluoroethyl)-2H-indazol-5-carboxamide] | 345 | xx (xx: 10-100) | xx (xx: 10-100)
15 | Cc1c(C(=O)NCCSC(F)(F)F)ccc2nn(C[C@@H]3CCN(C(=O)c4ccc(Cl)cc4)C3)cc12 [Example 220, 2-{[(R)-1-(4-chlorobenzoyl)pyrrolidin-3-yl]methyl}-4-methyl-N-{2-[(trifluoromethyl)sulphanyl]ethyl}-2H-indazol-5-carboxamide] | 147 | xxx (xxx > 100) | xxx (xxx > 100)
16 | Cc1c(C(=O)NCC(F)(F)F)ccc2nn(CC3CN(C(=O)c4ccc(Oc5ccc(C(F)(F)F)cc5)cc4)C3)cc12 [Example 164, 4-methyl-N-(2,2,2-trifluoroethyl)-2-[(1-{4-[4-(trifluoromethyl)phenoxy]benzoyl}azetidin-3-yl)methyl]-2H-indazol-5-carboxamide] | 10.9 | xxx (xxx > 100) | xxx (xxx > 100)
17 | Cc1c(C(=O)NCC(F)(F)F)ccc2nn(CC3CCN(C(=O)c4cc5ccccc5n4C)CC3)cc12 [Example 290, 4-methyl-2-({1-[(1-methyl-1H-indol-2-yl)carbonyl]piperidin-4-yl}methyl)-N-(2,2,2-trifluoroethyl)-2H-indazol-5-carboxamide] | 42.6 | xxx (xxx > 100) | xxx (xxx > 100)
18 | Cc1c(C(=O)NCCS(C)(=O)=O)ccc2nn(CC3CCN(C(=O)c4ccc(-c5ccc(F)cc5)cc4)CC3)cc12 [Example 408, 2-({1-[(4′-fluorobiphenyl-4-yl)carbonyl]piperidin-4-yl}methyl)-N-(2-mesylethyl)-4-methyl-2H-indazol-5-carboxamide] | 23.5 | xxx (xxx > 100) | xxx (xxx > 100)
19 | Cc1c(C(=O)NCCOC(C)(C)C)ccc2nn(CC3CCN(C(=O)c4ccc(-c5ccc(F)cc5)cc4)CC3)cc12 [Example 113, N-(2-tert-butoxyethyl)-2-({1-[(4′-fluoro-biphenyl-4-yl)-carbonyl]piperidin-4-yl}methyl)-4-methyl-2H-indazol-5-carboxamide] | 13.9 | xxx (xxx > 100) | xxx (xxx > 100)
20 | COCCNC(=O)c1ccc2nn(CC3CN(C(=O)c4ccc(Oc5ccc(Cl)cc5)cc4)C3)cc2c1C [Example 166, 2-({1-[4-(4-chlorophenoxy)benzoyl]azetidin-3-yl}methyl)-N-(2-methoxyethyl)-4-methyl-2H-indazol-5-carboxamide] | 2.87 | xxx (xxx > 100) | xxx (xxx > 100)
